Patent publication US3984470A, “Amidoxime derivatives and process for preparing the same” (priority 1974, dated 1976)

Experiments:
toxicity of yohimbine = assay: Potentiation of the toxicity of yohimbine (test of QUINTON); type: in vivo, male mice; conditions: Mus musculus; 50 mg/kg oral; yohimbine hydrochloride 25 mg/kg i.p.; mortality after 24 hours
Protocol: Yohimbine is a substance which provokes an increase in the serotonine level in the brain or a decrease in norepinephrine according to the author.
For this purpose, the test of QUINTON was used which is described in Brit. J. Pharmacol. 21, 51 (1963). […] […] The percentage of mortality was noted after 24 hours.
Table III hereunder expresses the percentage of potentiation of the toxicity due to yohimbine in comparison with the controls.
The percentage in question was determined 24 hours after the administration of yohimbine.

[1] = test system: reserpine-induced hypothermia; assay: Reserpine-induced hypothermia in the rat; type: in vivo, male rats CF1; conditions: reserpine 5 mg/kg i.p., mean to 6th hour vs controls
Protocol: (§1) The thymoanaleptic properties of the compounds of the invention were determined by means of reserpine-induced ptosis and hypothermia in the rat.
An intraperitoneal dose of 5 mg/kg of reserpine was administered to batches of 5 male rats CF1 weighing an average of 300 g. Thirty minutes later, the rectal temperature was determined and then a dose of the compound to be tested was given by oral route, except to the control animals. The rectal temperature of all the animals including the controls was taken every hour up to the 6th hour.
The difference between these two averages enabled an estimation to be made regarding the antagonistic effect of the compounds of the invention on the hypothermia induced by reserpine.

[2] = test system: stereotypies induced by amphetamine; assay: Potentiation of the stereotypies induced by amphetamine; type: in vivo, rats
Protocol: It is commonly admitted that amphetamine induces stereotypies by stimulating the dopaminergic receptors and inhibiting the re-uptake of dopamine into the neuron.
The thymoanaleptics potentiate these stereotypies.
Thirty minutes later, a dose of 10 mg/kg of the compound to be tested was given by oral route. Note was taken of the intensity of the stereotypies every 30 minutes for 150 minutes in accordance with the following scale which indicates the behaviour of the animal.
0 : the rat is motionless and asleep
1 : the rat is motionless and awake
3 : the rat stands on its hind paws and sniffs the lid of its cage in a stereotyped manner.
4 : the rat licks the walls of its cage in a stereotyped manner
5 : the rat bites the bars of its cage or sniffs the shavings of its litter in a stereotyped manner
6 : the rat chews the shavings in a stereotyped manner
The average of the 5 results obtained for each batch was calculated and compared with the average obtained with the control animals.
The difference between these averages represents the mean increase of the steroetypies of the treated animals in comparison with the controls.

reserpine-induced ptosis = assay: Reserpine-induced ptosis in the rat; type: in vivo, male rats of the CF1 strain; conditions: reserpine 5 mg/kg i.p., score scale 0-4, mean to 6th hour vs controls
Protocol: as §1
An intraperitoneal dose of 5 mg/kg of reserpine was administered to batches of 5 male rats of the CF1 strain weighing an average of 300 g.
Thirty minutes later a dose of the compound to be studied was given by oral route and the inhibitory effect of the reserpine was noted every hour up to the sixth hour. Ptosis was evaluated for each eye in accordance with the following scale:
4 : eyelids completely closed.
The difference between these two averages represents the average decrease of the ptosis in the treated animals as compared to the controls.

[3] = test system: aggressivity of killer rats; assay: Aggressivity of killer rats; type: in vivo, male rats; conditions: Rattus norvegicus, ip, 0.5 h, 30 minutes after administration
Excerpt: If, under certain conditions, male rats are kept alone in individual cages for several weeks, the become spontaneously aggressive towards any mouse, which they kill as soon as it is placed in the same cage. Mice were introduced one after another into cages containing an isolated rat and a selection was made of the rats which immediately killed three mice. In this way batches of 6 to 8 rats were constituted. The rats were then given the compound to be studied by intraperitoneal route in such a way that each batch received a higher dose than the preceding batch. […] Table V which follows contains the results obtained 30 minutes after administration of the compound to be studied.

[4] = test system: cholinergic effects provoked by tremorine; assay: Cholinolytic properties: action with respect to tremorine; type: in vivo, male mice of the OF1 strain; conditions: tremorine 10 mg/kg, difference vs controls
Protocol: When injected into mice, tremorine and its metabolite, oxotremorine, produce central cholinergic effects, i.e. normal and provoked tremor as well as peripheral cholinergic effects i.e. weeping, sweating diarrhoea and salivation.
Male mice of the OF1 strain weighing 22 g, were divided into batches of 10. Each batch with the exception of the control animals, received, by oral route, a dose of the compound to be tested.
Thirty minutes later, 10 mg/kg of tremorine were administered to all the batches and thirty minutes after the injection of tremorine note was taken of the cholinergic effects on each animal in accordance with the following scale: […]

[5] = 10 mg/kg oral, amphetamine 10 mg/kg i.p., every 30 min for 150 min
[6] = 20 mg/kg, same conditions (amphetamine 10 mg/kg i.p.)

SMILES	mortality at 50 mg/kg (toxicity of yohimbine) [%]	Average inhibition of hypothermia (positive °C) ([1]; 10 mg/kg oral) [°C]	Average increase of the stereotypies [2, 5]	Average decrease of Ptosis (reserpine-induced ptosis; 10 mg/kg oral)	further results
NC(COc1cccc2ccoc12)=NO [Compound 7, 2-(7-Benzofuryloxy)-acetamidoxime]	60	0.6	4.8	1.4	–
CCc1oc2ccccc2c1OC(CC)C(N)=NO (stereo not drawn) [Compound 10, 2-(2-Ethyl-3-benzofuryloxy)-butyramidoxime]	10	–	5.6	0.8	–
CC(C)(Oc1cccc2ccccc12)C(N)=NO [Compound 11, 2-(1-Naphtyloxy)-2-methyl-propionamidoxime]	–	–	–	0.7	Average inhibition of hypothermia (positive °C) ([1]; 20 mg/kg oral): 0.5 °C
Cc1oc2ccccc2c1OCC(N)=NO [Compound 12, 2-(2-Methyl-3-benzofuryloxy)-acetamidoxime]	–	–	–	0.7	inhibition in vivo at 25 mg/kg ([3]; 25 mg/kg i.p.): 27%
CCc1oc2ccccc2c1OCCC(N)=NO [Compound 13, 3-(2-Ethyl-3-benzofuryloxy)-propionamidoxime]	–	–	2.4	0.7	Central response tremor: Normal ([4]; 25 mg/kg oral): 0; Central response tremor: Provoked ([4]; 25 mg/kg oral): 0; Peripheral cholinergic response: Salivat. ([4]; 25 mg/kg oral): 0; Peripheral cholinergic response: Sweating ([4]; 25 mg/kg oral): 0; Peripheral cholinergic response: Weeping ([4]; 25 mg/kg oral): 0
Cc1oc2ccc(OCC(N)=NO)cc2c1C [Compound 15, 2-(2,3-Dimethyl-5-benzofuryloxy)-acetamidoxime]	10	–	1	0.5	–
Cc1oc2ccccc2c1OC(C)C(N)=NO (stereo not drawn) [Compound 16, 2-(2-Methyl-3-benzofuryloxy)-propionamidoxime]	–	–	–	0.5	–
CCc1oc2ccccc2c1OC(C)C(N)=NO (stereo not drawn) [Compound 17, 2-(2-Ethyl-3-benzofuryloxy)-propionamidoxime]	20	–	1.2	0.4	Central response tremor: Normal ([4]; 25 mg/kg oral): -0.8; Central response tremor: Provoked ([4]; 25 mg/kg oral): 0; Peripheral cholinergic response: Salivat. ([4]; 25 mg/kg oral): 0; Peripheral cholinergic response: Sweating ([4]; 25 mg/kg oral): 0; Peripheral cholinergic response: Weeping ([4]; 25 mg/kg oral): 0
Cc1oc2ccccc2c1OCCC(N)=NO [Compound 19, 3-(2-Methyl-3-benzofuryloxy)-propionamidoxime]	10	–	–	0.3	–
CCC(Oc1c(C(C)C)oc2ccccc12)C(N)=NO (stereo not drawn) [Compound 20, 2(2-Isopropyl-3-benzofuryloxy)-butyramidoxime]	–	0.8	–	0.3	–
Cc1oc2cc(OCC(N)=NO)ccc2c1C [Compound 21, 2-(2,3-Dimethyl-6-benzofuryloxy)-acetamidoxime]	40	–	4.2	0.3	–
Cc1oc2ccccc2c1OC(C)(C)C(N)=NO [Compound 22, 2-(2-Methyl-3-benzofuryloxy)-2-methyl-propionamidoxime]	–	0.5	4.2	0.3	Central response tremor: Normal ([4]; 10 mg/kg oral): 0; Central response tremor: Provoked ([4]; 10 mg/kg oral): 0; Peripheral cholinergic response: Salivat. ([4]; 10 mg/kg oral): 0; Peripheral cholinergic response: Sweating ([4]; 10 mg/kg oral): 0; Peripheral cholinergic response: Weeping ([4]; 10 mg/kg oral): 0
Cc1oc2ccc(OCCC(N)=NO)cc2c1C [Compound 23, 3-(2,3-Dimethyl-5-benzofuryloxy)-propionamidoxime]	–	0.3	–	0.2	–
CC(Oc1c(C(C)C)oc2ccccc12)C(N)=NO (stereo not drawn) [Compound 24, 2-(2-Isopropyl-3-benzofuryloxy)-propionamidoxime]	30	0.8	3.8	0.2	–
NC(COc1ccc2ccoc2c1)=NO [Compound 25, 2-(6-Benzofuryloxy)-acetamidoxime]	30	–	4.4	0.2	–
CCc1oc2ccccc2c1OCC(N)=NO [Compound 27, 2-(2-Ethyl-3-benzofuryloxy)-acetamidoxime]	20	–	–	–	Average decrease of Ptosis (reserpine-induced ptosis; 20 mg/kg oral): 0.3

SMILES	mortality at 50 mg/kg (toxicity of yohimbine) [%]	Average inhibition of hypothermia (positive °C) ([1]; 10 mg/kg oral) [°C]	Average increase of the stereotypies [2, 5]	Average decrease of Ptosis (reserpine-induced ptosis; 10 mg/kg oral)	further results
CC(Oc1ccc2ccoc2c1)C(N)=NO (stereo not drawn) [Compound 28, 2-(6-Benzofuryloxy)-propionamidoxime]	–	–	–	–	Average inhibition of hypothermia (positive °C) ([1]; 100 mg/kg oral): 1.1 °C; Average decrease of Ptosis (reserpine-induced ptosis; 100 mg/kg oral): 2.4
CC(Oc1ccc2occc2c1)C(N)=NO (stereo not drawn) [Compound 29, 2-(5-Benzofuryloxy)-propionamidoxime]	–	–	–	–	Average inhibition of hypothermia (positive °C) ([1]; 100 mg/kg oral): 0.8 °C; Average increase of the stereotypies [2, 6]: 5; Average decrease of Ptosis (reserpine-induced ptosis; 100 mg/kg oral): 2.4
CCC(Oc1ccc2ccoc2c1)C(N)=NO (stereo not drawn) [Compound 31, 2-(6-Benzofuryloxy)-butyramidoxime]	–	–	–	–	Average decrease of Ptosis (reserpine-induced ptosis; 100 mg/kg oral): 2.3
Cc1cc2cc(OCCC(N)=NO)ccc2o1 [Compound 32, 3-(2-Methyl-5-benzofuryloxy)-propionamidoxime]	–	–	–	–	Average decrease of Ptosis (reserpine-induced ptosis; 100 mg/kg oral): 2.3
Cc1cc2cc(OCC(N)=NO)ccc2o1 [Compound 33, 2-(2-Methyl-5-benzofuryloxy)-acetamidoxime]	–	–	–	–	inhibition in vivo at 20 mg/kg ([3]; 20 mg/kg i.p.): 60%; Average increase of the stereotypies [2, 6]: 4; Average decrease of Ptosis (reserpine-induced ptosis; 100 mg/kg oral): 2.0
CC(C)c1oc2ccccc2c1OC(C)(C)C(N)=NO [Compound 35, 2-(2-Isopropyl-3-benzofuryloxy)-2-methyl-propionamidoxime]	–	0.7	3	–	–
CC(C)c1oc2ccccc2c1OCC(N)=NO [Compound 36, 2-(2-Isopropyl-3-benzofuryloxy)-acetamidoxime]	–	0.7	1.8	–	–
CCC(Oc1ccc2ccccc2c1)C(N)=NO (stereo not drawn) [Compound 37, 2-(2-Naphthyloxy)-butyramidoxime]	–	0.5	1.8	–	–
CC(C)(Oc1cccc2c1OCCO2)C(N)=NO [Compound 38, 2-[(1,4-Benzodioxanyl)-5-oxyl]-2-methyl-propionamidoxime]	10	0.5	–	–	–
CCC(Oc1c(C)oc2ccccc12)C(N)=NO (stereo not drawn) [Compound 39, 2-(2-Methyl-3-benzofuryloxy)-butyramidoxime]	40	0.3	–	–	–
CC(C)(Oc1ccc2ccccc2c1)C(N)=NO [Compound 40, 2-(2-Naphthyloxy)-2-methyl-propionamidoxime]	–	0.2	–	–	–
CCC(Oc1cccc2c(C)c(C)oc12)C(N)=NO (stereo not drawn) [Compound 41, 2-(2,3-Dimethyl-7-benzofuryloxy)-butyramidoxime]	–	–	–	–	Average inhibition of hypothermia (positive °C) ([1]; 100 mg/kg oral): 1.1 °C
CCC(Oc1cccc2ccoc12)C(N)=NO (stereo not drawn) [Compound 42, 2-(7-Benzofuryloxy)-butyramidoxime]	60	–	–	–	–
CCC(Oc1cccc2occc12)C(N)=NO (stereo not drawn) [Compound 43, 2-(4-Benzofuryloxy)-butyramidoxime]	60	–	5.5	–	–
Cc1oc2c(OC(C)C(N)=NO)cccc2c1C (stereo not drawn) [Compound 44, 2-(2,3-Dimethyl-7-benzofuryloxy)-propionamidoxime]	40	–	–	–	–
CC(Oc1cccc2c1OCCO2)C(N)=NO (stereo not drawn) [Compound 45, 2-[(1,4-Benzodioxanyl)-5-oxy]-propionamidoxime]	10	–	3	–	–
